Measured values: ChEMBL document CHEMBL1141205, “Design, synthesis, and evaluation of octahydropyranopyrrole-based inhibitors of mammalian ribonucleotide reductase” (Bioorg Med Chem Lett, 2005)
Activity calls are given as the source filed them. The calls are words filed in the database; no cut-off is given here.

Columns and labels:
[1] = target: T1, Ribonucleoside-diphosphate reductase RR1 (Homo sapiens, UniProt P23921+P31350+Q7LG56); test: (§1) Inhibition of mammalian ribonucleotide reductase (mRR); type: protein-complex assay
T1 sequence (P23921 whole entry): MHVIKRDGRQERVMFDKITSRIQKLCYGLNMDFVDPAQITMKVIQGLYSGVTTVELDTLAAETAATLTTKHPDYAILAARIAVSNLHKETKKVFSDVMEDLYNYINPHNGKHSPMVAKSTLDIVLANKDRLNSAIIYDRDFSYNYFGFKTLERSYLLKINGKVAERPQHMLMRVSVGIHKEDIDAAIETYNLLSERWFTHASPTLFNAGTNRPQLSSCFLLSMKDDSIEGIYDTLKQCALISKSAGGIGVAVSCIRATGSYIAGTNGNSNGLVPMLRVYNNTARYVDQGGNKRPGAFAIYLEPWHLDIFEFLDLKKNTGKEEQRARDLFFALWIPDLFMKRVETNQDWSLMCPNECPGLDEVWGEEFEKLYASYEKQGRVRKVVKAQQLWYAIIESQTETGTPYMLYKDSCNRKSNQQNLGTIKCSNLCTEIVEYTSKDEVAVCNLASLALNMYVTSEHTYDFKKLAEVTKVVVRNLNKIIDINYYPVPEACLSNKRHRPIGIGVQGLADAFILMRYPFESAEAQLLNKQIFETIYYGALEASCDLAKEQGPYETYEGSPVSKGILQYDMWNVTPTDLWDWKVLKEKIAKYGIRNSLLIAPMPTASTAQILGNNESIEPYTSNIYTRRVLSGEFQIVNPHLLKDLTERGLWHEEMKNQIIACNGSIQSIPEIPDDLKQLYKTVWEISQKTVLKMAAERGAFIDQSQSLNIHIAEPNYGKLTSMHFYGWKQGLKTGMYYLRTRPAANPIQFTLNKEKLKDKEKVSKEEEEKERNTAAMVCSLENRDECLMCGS
T1 sequence (Q7LG56 whole entry): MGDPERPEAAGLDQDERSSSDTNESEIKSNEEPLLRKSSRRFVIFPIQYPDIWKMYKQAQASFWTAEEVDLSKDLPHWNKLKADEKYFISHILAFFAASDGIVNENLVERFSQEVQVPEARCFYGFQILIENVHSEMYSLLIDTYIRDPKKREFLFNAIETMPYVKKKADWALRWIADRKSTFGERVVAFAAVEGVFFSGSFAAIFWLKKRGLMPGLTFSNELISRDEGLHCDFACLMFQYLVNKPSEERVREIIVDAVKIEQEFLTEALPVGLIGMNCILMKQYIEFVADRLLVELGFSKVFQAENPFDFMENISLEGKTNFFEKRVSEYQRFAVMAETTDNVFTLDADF
T1 sequence (P31350 whole entry): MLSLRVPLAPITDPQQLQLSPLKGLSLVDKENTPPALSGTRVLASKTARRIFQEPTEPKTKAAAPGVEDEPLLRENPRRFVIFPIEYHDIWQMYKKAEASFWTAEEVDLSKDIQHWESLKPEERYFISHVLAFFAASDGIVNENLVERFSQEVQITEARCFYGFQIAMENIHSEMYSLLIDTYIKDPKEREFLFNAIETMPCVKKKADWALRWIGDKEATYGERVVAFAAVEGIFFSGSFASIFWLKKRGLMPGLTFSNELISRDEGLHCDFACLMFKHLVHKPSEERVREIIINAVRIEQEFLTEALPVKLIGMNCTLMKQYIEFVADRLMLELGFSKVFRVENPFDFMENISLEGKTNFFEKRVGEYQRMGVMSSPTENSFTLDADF

[2] = target: Ribonucleoside-diphosphate reductase RR1 (Homo sapiens) (UniProt P23921+Q7LG56+P31350); test: as §1; type: protein-complex assay

CC(C)CO[C@@H]1C[C@@H]2[C@@H]([C@@H](COC(=O)CCC3c4ccccc4-c4ccccc43)O1)N(CC(=O)N[C@@H](CC(=O)O)C(=O)N[C@@H](Cc1ccccc1)C(=O)O)C[C@H]2O was tested. Which IC50 [1] did it give?
The IC50 was 40 µM.

Which Activity [2] does the source give for CC(C)CO[C@@H]1C[C@@H]2[C@@H]([C@@H](COC(=O)CCc3ccccc3)O1)N(CC(=O)N[C@@H](CC(=O)O)C(=O)N[C@@H](Cc1ccccc1)C(=O)O)C[C@H]2O here?
Its Activity is “Active”.

For CC(C)CO[C@@H]1CC[C@H](N(C)CC(=O)N[C@@H](CC(=O)O)C(=O)N[C@@H](Cc2ccccc2)C(=O)O)[C@@H](COC(=O)CCc2ccccc2)O1, which Activity [2] is on record?
Its Activity is “inactive”.

CC(C)CO[C@@H]1C[C@@H]2[C@@H]([C@@H](COC(=O)COc3ccc4ccccc4c3)O1)N(CC(=O)N[C@@H](CC(=O)O)C(=O)N[C@@H](Cc1ccccc1)C(=O)O)C[C@H]2O was tested. Which Activity [2] did it give?
Its Activity is “inactive”.

How did the Activity [2] turn out when CC(C)CO[C@@H]1CC[C@H](N(C)CC(=O)N[C@@H](CC(=O)O)C(=O)N[C@@H](Cc2ccccc2)C(=O)O)[C@@H](COC(=O)CCC2c3ccccc3-c3ccccc32)O1 was run?
The Activity was “inactive”.
